Consider five molecules from US20230126204A1, “[1,3]DIAZINO[5,4-d]PYRIMIDINES AS HER2 INHIBITORS” (Boehringer Ingelheim International GmbH, priority 2020, published 2023).

Common to all, as to assay type: cell-based
Assay [1] concerns the target T1, HER2 YVMA (Homo sapiens, UniProt P04626, INS775YVMA).
T1 construct: expressed in transfected cells; host or cells: human HEK cells, retroviral transduction, puromycin selection, doxycycline-inducible expression
Briefly: pHER2 (ERBB2) YVMA assay (AlphaScreen Surefire, HEK cells). Conditions: HEK cells expressing HER2 YVMA, phosphorylation at Tyr1221/1222, 4 h. The procedure:
(§1) For the assay, HEK HER2 YVMA cells were seeded in MEM medium with 10% FBS. 4 hours prior to compound addition, HER2 YVMA expression was induced using 1 μg/ml Doxycycline. […] Subsequently, 60.000 cells/well in 60 μL were added. Cells were incubated with compounds for 4 h at 37° C. […] The mixture was incubated at a temperature of 20-25° C. with shaking (700 rpm) for 20 min. After centrifugation, 4 μL of the lysate were transferred to Proxiplates. […] Plates were shaken for 1 min (1400 rpm) and incubated for 2 h at a temperature of 20-25° C. in the dark.
The results of the assay are provided as IC50 values.
A general note: Alpha assays give light when donor and acceptor beads are brought close together.

The target in assay [2] is T2, EGFR wild type (WT) (Homo sapiens, UniProt P00533).
T2 construct: expressed in transfected cells; host or cells: human HEK cells (ATCC CRL-1573), retroviral transduction, puromycin selection
Briefly: pEGFR assay (AlphaScreen Surefire, HEK cells). The note with it: HEK cells expressing EGFR WT, phosphorylation at Tyr1068, 4 h. As for the experimental part: This assay quantifies the phosphorylation of EGFR at Tyr1068 and was used to measure the inhibitory effect of compounds on the transgenic EGFR wild type (WT) protein expressed in HEK cells.
as §1, with “Transduced cells were selected using puromycin. p-EGFR Tyr1068 was determined using the AlphaScreen Surefire pEGF Receptor (Tyr1068) Assay (PerkinElmer, TGRERS). For” for “For”, “EGFR WT” for “HER2 YVMA”, “FBS.” for “FBS. 4 hours prior to compound addition, HER2 YVMA expression was induced using 1 μg/ml Doxycycline.”
This cellular phospho-EGFR (pEGFR) compound dose-response assay quantifies the phosphorylation of EGFR at Tyr1068 in HEK cells expressing EGFR WT. The results of the assay are provided as IC50 values.

Assay [3] relates to NCI-H2170 (HER2 wild type) cells. The assay is described as follows: Tumor cell proliferation assay NCI-H2170 (HER2 wild type). The note with it: Homo sapiens, 72 h, CellTiter-Glo, read-out: GI50 NCI H-2170 HER2 wt amp. The procedure: (§2) For proliferation assays, NCI-H2170 (HER2 wild type), NCI-H2170 HER2 YVMA and EGFR WT dependent A431 cells were used. NCI-H2170 HER2 YVMA or NCI-H2170 cells were seeded into 96-well plates at 750 cells/60 μL in growth media (RPMI ATCC+10% FBS, +Penicillin/Streptomycin). […] Compounds were added by using a HP D3000 Digital Dispenser one day after plating the cells. All treatments were performed in technical triplicates. Treated cells were incubated for 72 h at 37° C. with 5% CO2. CellTiter-Glo® Luminescent Cell Viability Assay (Promega) was performed and chemoluminescence was measured by using the multilabel Plate Reader VICTOR X4. The raw data were imported into and analyzed with the Boehringer Ingelheim proprietary software MegaLab (curve fitting based on the program PRISM, GraphPad Inc.).

Assay [4] concerns NCI-H2170 HER2 YVMA cells. Briefly: Tumor cell proliferation assay NCI-H2170 HER2 YVMA. The note with it: Homo sapiens, 72 h, CellTiter-Glo, read-out: GI50 NCI H-2170 HER2 YVMA.
Description: HER2 YVMA tumor cell line model generation and proliferation assays
Homology-directed genome engineering was employed to insert a 12 nucleotide sequence encoding YVMA into Exon 20 of the genomic HER2 locus in NCI-H2170 cells. […] The DNA template containing the HER2 exon 20 YVMA insertion variant was obtained from GenScript. PCR followed by Sanger sequencing was used to confirm the presence of the 12-nucleotide insertion in HER2 Exon 20 resulting in the YVMA amino acid duplication.
as §2

For assay [5], the system named is EGFR WT dependent A431 cells. Briefly: Tumor cell proliferation assay A431 (EGFR WT dependent). The note with it: Homo sapiens, A-431; 72 h, CellTiter-Glo; read-out: GI50 A431 EGFR wt amp. The procedure: as §2
In general terms: ATP-based viability assays read luminescence as a measure of living cells.

Assay [6] has as its system Ba/F3 cells HER2 WT. The assay is described as follows: Ba/F3 proliferation assay HER2 WT. Conditions: Mus musculus, BaF3; 72 h, CellTiter-Glo. The procedure: (§3) Ba/F3 cell model generation and proliferation assays
(§4) Plasmids containing HER2 mutants and EGFR WT were obtained from GeneScript. To generate EGFR/HER2-dependent Ba/F3 models, Ba/F3 cells were transduced with retroviruses containing vectors that harbor EGFR WT, HER2 WT or HER2 mutants (YVMA). Platinum-E cells (Cell Biolabs) were used for retrovirus packaging. Retrovirus was added to Ba/F3 cells. To ensure infection, 4 μg/mL polybrene was added and cells were spinfected. Infection efficiency was confirmed by measuring GFP-positive cells using a cell analyzer. Cells with an infection efficiency of 10% to 20% were further cultivated and puromycin selection with 1 μg/mL was initiated. As a control, parental Ba/F3 cells were used to assess the selection status. Selection was considered successful when parental Ba/F3 cells cultures died. To evaluate the transforming potential of HER2 mutations, the growth medium was no longer supplemented with IL-3. Ba/F3 cells harboring the empty vector were used as a control. A switch from IL-3 to EGF was performed for Ba/F3 cells with the EGFR WT known for its dependency on EGF ligand. Approximately ten days before conducting the experiments, puromycin was left out. For proliferation assays (data in table 12 and 14), Ba/F3 cells were seeded into 96-well plates at 5×10^3 cells/100 μL in growth media. Compounds were added by using a HP D3000 Digital Dispenser. All treatments were performed in technical triplicates. Treated cells were incubated for 72 h at 37° C. with 5% CO2. CellTiter-Glo® Luminescent Cell Viability Assay (Promega) was performed and chemoluminescence was measured by using the multilabel Plate Reader VICTOR X4. The raw data were imported into and analyzed with the Boehringer Ingelheim proprietary software MegaLab (curve fitting based on the program PRISM, GraphPad Inc.).

Assay [7] concerns Ba/F3 cells HER2 mutants (YVMA). The assay is described as follows: Ba/F3 proliferation assay HER2 YVMA. Conditions: Mus musculus, BaF3; 72 h, CellTiter-Glo. As for the experimental part: as §3, §4
The test system of assay [8] is Ba/F3 cells EGFR WT. Briefly: Ba/F3 proliferation assay EGFR WT (EGF dependent). The note with it: Mus musculus, BaF3, EGF instead of IL-3, 72 h, CellTiter-Glo, read-out: GI50 BAF3 EGF dep. The procedure:
as §3, §4

T1 sequence (P04626 with tags, fused parts or gaps INS775YVMA): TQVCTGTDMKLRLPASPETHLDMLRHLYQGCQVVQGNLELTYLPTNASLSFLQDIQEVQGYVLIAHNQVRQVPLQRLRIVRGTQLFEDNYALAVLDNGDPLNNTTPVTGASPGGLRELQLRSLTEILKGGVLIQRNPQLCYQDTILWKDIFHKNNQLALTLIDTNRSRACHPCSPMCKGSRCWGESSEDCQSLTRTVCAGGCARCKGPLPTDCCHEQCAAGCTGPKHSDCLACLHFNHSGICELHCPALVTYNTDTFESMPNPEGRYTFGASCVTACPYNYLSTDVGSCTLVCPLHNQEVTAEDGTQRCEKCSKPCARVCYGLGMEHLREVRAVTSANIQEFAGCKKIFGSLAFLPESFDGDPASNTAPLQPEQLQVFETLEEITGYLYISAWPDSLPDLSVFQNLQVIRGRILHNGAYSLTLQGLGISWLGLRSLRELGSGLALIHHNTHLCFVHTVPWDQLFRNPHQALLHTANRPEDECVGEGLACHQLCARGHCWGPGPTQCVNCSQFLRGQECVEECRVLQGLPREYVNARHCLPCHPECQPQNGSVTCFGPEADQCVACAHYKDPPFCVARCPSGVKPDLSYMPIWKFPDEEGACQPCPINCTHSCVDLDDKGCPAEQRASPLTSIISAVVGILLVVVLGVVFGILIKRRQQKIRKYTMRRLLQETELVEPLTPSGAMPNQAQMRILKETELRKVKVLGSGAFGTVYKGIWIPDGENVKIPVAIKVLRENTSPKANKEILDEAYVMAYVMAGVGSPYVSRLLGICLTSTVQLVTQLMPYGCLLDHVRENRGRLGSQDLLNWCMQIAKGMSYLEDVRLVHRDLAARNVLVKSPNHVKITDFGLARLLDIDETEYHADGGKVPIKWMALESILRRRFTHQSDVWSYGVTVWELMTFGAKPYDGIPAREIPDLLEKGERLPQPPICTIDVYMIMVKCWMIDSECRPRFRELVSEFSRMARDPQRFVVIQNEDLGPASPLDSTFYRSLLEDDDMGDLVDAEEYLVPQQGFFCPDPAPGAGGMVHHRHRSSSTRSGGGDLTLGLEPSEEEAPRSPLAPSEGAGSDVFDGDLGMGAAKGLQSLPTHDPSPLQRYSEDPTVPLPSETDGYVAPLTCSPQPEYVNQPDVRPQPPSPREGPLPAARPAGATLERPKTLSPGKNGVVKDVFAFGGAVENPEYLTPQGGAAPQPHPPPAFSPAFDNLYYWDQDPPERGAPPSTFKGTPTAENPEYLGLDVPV
T2 sequence (P00533 25-1210): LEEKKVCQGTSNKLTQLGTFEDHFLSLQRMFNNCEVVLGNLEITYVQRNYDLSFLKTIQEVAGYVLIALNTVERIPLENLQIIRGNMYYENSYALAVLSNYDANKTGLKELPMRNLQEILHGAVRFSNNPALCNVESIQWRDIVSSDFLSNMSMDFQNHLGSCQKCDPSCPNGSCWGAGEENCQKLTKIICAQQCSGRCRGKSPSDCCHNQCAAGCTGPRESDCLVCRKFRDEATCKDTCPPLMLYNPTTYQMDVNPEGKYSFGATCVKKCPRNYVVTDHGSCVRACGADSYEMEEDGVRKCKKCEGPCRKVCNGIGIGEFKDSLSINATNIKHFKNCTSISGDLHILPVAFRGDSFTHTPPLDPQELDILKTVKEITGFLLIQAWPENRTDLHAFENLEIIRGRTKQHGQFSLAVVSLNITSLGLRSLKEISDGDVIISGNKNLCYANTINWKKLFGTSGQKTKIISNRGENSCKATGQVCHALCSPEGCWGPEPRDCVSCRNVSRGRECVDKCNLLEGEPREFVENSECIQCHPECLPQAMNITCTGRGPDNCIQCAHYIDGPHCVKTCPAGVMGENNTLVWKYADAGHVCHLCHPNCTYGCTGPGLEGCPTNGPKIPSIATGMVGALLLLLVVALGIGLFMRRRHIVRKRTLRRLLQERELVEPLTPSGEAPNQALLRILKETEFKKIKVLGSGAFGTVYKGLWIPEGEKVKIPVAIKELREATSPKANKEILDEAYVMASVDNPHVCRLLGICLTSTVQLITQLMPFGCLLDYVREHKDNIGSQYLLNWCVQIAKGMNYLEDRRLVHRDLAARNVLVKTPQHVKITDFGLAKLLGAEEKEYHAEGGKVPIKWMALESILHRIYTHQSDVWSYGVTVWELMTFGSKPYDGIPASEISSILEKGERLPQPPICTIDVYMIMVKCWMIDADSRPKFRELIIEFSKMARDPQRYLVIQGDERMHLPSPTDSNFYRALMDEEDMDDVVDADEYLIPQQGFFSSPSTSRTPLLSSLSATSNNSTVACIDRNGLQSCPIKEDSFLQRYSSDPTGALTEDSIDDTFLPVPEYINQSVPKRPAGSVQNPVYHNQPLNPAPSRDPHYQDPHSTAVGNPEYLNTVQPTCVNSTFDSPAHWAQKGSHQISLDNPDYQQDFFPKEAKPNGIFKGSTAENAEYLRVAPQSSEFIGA

For `C=CC(=O)N1CCN(c2ncc3ncnc(Nc4cc(F)c(Oc5ccc6c(c5)ncn6C)c(Cl)c4)c3n2)CC1` [Compound I-8], the IC50 (usually the point on the concentration scale where inhibition reaches its midpoint) in assay [1] was determined as 22 nM; in assay [2], 355 nM. Also, the GI50 (commonly the concentration giving 50% growth inhibition) is 21 nM in assay [3]; 172 nM in assay [4]; 3930 nM in assay [5]; 3 nM in assay [6]; 31 nM in assay [7]; 1040 nM in assay [8].

Turning to `C=CC(=O)N1CCN(c2ncc3ncnc(Nc4cc(Br)c(Oc5ccc6c(c5)ncn6C)c(Br)c4)c3n2)CC1` [Compound I-9], the IC50 came out at 34 nM in assay [1] and 485 nM in assay [2]. Besides, the GI50 in assay [3] was found to be 46 nM; in assay [4] it was 203 nM; in assay [5], 2510 nM; in assay [6], 5 nM; in assay [7], 23 nM; in assay [8] it was 1120 nM.

Take `C=CC(=O)N1CCN(c2ncc3ncnc(Nc4cc(Br)c(Oc5ccc6c(c5)ncn6C)cc4Cl)c3n2)CC1` [Compound I-10]: the figures for the IC50 in assay [1] and in assay [2] were 80 nM and 1770 nM, respectively. Further, the GI50 in assay [3] is 52 nM; in assay [4] it was 216 nM; in assay [5], greater than 5000 nM; in assay [6], 8 nM; in assay [7], 64 nM; in assay [8], 1630 nM.

On to `C=CC(=O)N1CCN(c2ncc3ncnc(Nc4cc(F)c(Oc5ccc6c(c5)ncn6C)c(F)c4)c3n2)CC1` [Compound I-11], for which the half-maximal inhibitory concentration (IC50) in assay [1] was determined as 25 nM; in assay [2], 1170 nM. In addition, the GI50 was 47 nM in assay [3]; 339 nM in assay [4]; greater than 5000 nM in assay [5]; 3 nM in assay [6]; 40 nM in assay [7]; 644 nM in assay [8].

For the molecule `C=CC(=O)N1CCN(c2ncc3ncnc(Nc4ccc(Oc5ccc6c(c5)ncn6C)cc4F)c3n2)CC1` [Compound I-12], the IC50 was 27 nM in assay [1] and 873 nM in assay [2]. Besides, the GI50 in assay [3] was 45 nM; in assay [4], 167 nM; in assay [5], 4810 nM; in assay [6], 7 nM; in assay [7], 48 nM; in assay [8], 1180 nM.
